ChEMBL document CHEMBL5120808, “6-Aryl-quinazolines as novel GABAB receptor positive allosteric modulators” (Bioorg Med Chem Lett, 2022)
Activity calls are given as the source filed them. No cut-off for these calls is given here.

Legend:
[1] = Metabolic stability in rat assessed as parent compound remaining; format: ADME
[2] = Metabolic stability in human assessed as parent compound remaining; format: ADME
GABA-B receptor = GABA-B receptor (Homo sapiens, UniProt O75899+Q9UBS5); assay: Positive allosteric modulation of GABA-B receptor (unknown origin) assessed as stimulation of [35S]GTPgammaS binding by [35S]GTPgammaS binding assay; format: functional
Sequence of GABA-B receptor (Q9UBS5 whole entry): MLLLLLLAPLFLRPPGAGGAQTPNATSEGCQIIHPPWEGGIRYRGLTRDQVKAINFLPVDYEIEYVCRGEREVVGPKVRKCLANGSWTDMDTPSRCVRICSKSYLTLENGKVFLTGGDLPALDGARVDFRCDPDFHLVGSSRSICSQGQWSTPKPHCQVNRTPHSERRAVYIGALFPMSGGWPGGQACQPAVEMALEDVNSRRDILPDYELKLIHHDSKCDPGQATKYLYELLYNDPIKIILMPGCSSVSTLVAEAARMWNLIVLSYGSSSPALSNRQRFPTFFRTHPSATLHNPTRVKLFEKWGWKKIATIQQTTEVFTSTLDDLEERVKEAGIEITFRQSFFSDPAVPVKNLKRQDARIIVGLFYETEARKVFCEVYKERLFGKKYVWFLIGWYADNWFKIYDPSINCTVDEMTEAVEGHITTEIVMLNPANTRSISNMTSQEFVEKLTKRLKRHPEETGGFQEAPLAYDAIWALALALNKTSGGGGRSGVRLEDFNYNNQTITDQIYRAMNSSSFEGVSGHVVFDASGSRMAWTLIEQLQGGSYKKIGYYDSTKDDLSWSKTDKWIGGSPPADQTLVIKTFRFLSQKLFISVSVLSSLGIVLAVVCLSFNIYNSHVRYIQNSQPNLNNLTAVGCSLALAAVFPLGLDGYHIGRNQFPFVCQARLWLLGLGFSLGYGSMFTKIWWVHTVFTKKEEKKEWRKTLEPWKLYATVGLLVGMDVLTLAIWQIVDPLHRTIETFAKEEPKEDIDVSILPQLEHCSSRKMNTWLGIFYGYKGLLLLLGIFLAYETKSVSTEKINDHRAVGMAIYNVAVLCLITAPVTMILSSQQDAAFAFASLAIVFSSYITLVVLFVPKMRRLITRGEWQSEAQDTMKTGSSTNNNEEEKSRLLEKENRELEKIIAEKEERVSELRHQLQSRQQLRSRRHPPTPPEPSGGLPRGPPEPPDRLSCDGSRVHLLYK
Sequence of GABA-B receptor (O75899 whole entry): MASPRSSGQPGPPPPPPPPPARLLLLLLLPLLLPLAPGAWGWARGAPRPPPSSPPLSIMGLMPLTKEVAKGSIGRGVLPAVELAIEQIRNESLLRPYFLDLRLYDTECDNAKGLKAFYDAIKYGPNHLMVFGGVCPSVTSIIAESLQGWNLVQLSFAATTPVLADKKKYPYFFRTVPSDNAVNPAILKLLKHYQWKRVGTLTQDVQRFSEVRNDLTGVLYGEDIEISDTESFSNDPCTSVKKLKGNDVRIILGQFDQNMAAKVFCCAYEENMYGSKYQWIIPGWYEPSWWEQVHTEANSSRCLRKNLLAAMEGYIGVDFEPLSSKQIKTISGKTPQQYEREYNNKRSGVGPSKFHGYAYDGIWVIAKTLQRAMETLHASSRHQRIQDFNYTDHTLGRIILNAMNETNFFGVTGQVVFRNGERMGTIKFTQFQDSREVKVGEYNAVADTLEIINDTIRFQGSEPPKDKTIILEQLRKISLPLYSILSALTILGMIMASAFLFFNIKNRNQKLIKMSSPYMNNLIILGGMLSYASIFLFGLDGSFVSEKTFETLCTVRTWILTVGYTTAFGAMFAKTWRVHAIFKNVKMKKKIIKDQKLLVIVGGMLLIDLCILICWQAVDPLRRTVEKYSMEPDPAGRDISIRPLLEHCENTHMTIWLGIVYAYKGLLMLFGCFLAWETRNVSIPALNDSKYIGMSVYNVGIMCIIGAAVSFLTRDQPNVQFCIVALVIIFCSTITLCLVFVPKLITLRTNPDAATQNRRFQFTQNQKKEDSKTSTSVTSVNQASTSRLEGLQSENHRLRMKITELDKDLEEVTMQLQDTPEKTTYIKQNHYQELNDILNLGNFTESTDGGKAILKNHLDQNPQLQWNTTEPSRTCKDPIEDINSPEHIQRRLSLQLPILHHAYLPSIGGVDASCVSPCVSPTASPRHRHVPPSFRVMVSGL

[3] = Metabolic stability in mouse assessed as parent compound remaining; format: ADME
Mus musculus [4] = assay: Potentiation of baclofen induced skeletal muscle relaxation in po dosed NMRI mouse assessed as effective dose by Litchfield-Wilcoxon method; format: functional
[5] = AUC (0 to 24 hrs) in NMRI mouse brain at 10 mg/kg, po measured up to 24 hrs; format: ADME, organism-based; parameters: time < 24 hrs, dose 10 mg/kg, route po
[6] = Half life in NMRI mouse brain at 10 mg/kg, po measured up to 24 hrs; format: ADME, organism-based
[7] = Tmax in NMRI mouse plasma at 10 mg/kg, po measured up to 24 hrs; format: ADME, organism-based
[8] = Cmax in NMRI mouse brain at 10 mg/kg, po measured up to 24 hrs; format: ADME, organism-based; parameters: time < 24 hrs, dose 10 mg/kg, route po
[9] = Cmax in NMRI mouse plasma at 10 mg/kg, po measured up to 24 hrs; format: ADME, organism-based; parameters: dose 10 mg/kg, time < 24 hrs, route po
Mus musculus [10] = assay: Potentiation of baclofen induced skeletal muscle relaxation in NMRI mouse at 3 to 30 mg/kg, po by traction test; format: functional, organism-based; details: dose 3-30 mg/kg
[11] = AUC (0 to 24 hrs) in NMRI mouse plasma at 10 mg/kg, po measured up to 24 hrs; format: ADME, organism-based; parameters: time < 24 hrs, dose 10 mg/kg, route po
Mus musculus [12] = assay: Potentiation of baclofen induced loss of righting reflex in po dosed NMRI mouse assessed as effective dose by Litchfield-Wilcoxon method; format: functional
[13] = Tmax in NMRI mouse brain at 10 mg/kg, po measured up to 24 hrs; format: ADME, organism-based

SMILES | Stability [1] [%] | Stability [2] [%] | EC50 (GABA-B receptor) [nM] | Stability [3] [%] | further results
Cc1nc(N[C@@H]2C[C@H]3CC[C@@H]2C3)c2cc(-c3ccc(Cl)cc3)ccc2n1 | 49 | 47 | 444 | 39 | ED50 (Mus musculus [4]): 12.7 mg/kg
Cc1nc(N[C@@H]2C[C@H]3CC[C@@H]2C3)c2cc(-c3ccc(C(F)(F)F)cc3)ccc2n1 | 77 | 66 | 771 | 66 | 
Cc1ncc(-c2ccc(C(F)(F)F)cc2)c(N[C@@H]2C[C@H]3CC[C@@H]2C3)n1 | 24 | 65 |  | 42 | 
Clc1cc(Cl)cc(-c2ccc3nc(Cl)nc(N[C@@H]4C[C@H]5CC[C@@H]4C5)c3c2)c1 | 76 | 85 |  | 62 | 
FC(F)(F)c1ccc(-c2ccc3nc(Cl)nc(N[C@@H]4C[C@H]5CC[C@@H]4C5)c3c2)cc1 | 84 | 73 | 637 | 95 | ED50 (Mus musculus [4]): 8.1 mg/kg; AUC(0-t) at 24 h [5]: 852 ng·h/mL; half-life [6]: 8.94 h; Tmax [7]: 1 h; Cmax [8]: 100 ng/mL; Cmax [9]: 586 ng/mL; Activity (Mus musculus [10]): Active; AUC(0-t) at 24 h [11]: 4660 ng·h/mL; ED50 (Mus musculus [12]): 2.9 mg/kg; Tmax [13]: 2 h
Cc1nc(N[C@@H]2C[C@H]3CC[C@@H]2C3)c2cc(-c3ccccc3Cl)ccc2n1 | 31 | 57 | 496 | 23 | 

The next lines start with results.

Stability [1] [%] | Stability [2] [%] | EC50 (GABA-B receptor) [nM] | Stability [3] [%] | SMILES | further results
23 | 50 | 199 | 27 | Cc1nc(N[C@@H]2C[C@H]3CC[C@@H]2C3)c2cc(-c3cccc(Cl)c3)ccc2n1 | 
59 | 69 | 341 | 67 | Clc1nc(N[C@@H]2C[C@H]3CC[C@@H]2C3)c2cc(-c3ccc(Cl)c(Cl)c3)ccc2n1 | 
41 | 75 | 142 | 41 | Cc1nc(N[C@@H]2C[C@H]3CC[C@@H]2C3)c2cc(-c3cccc(C(F)(F)F)c3)ccc2n1 | 
85 | 46 | 208 | 40 | Clc1ccc(-c2ccc3nc(Cl)nc(N[C@@H]4C[C@H]5CC[C@@H]4C5)c3c2)cc1 | ED50 (Mus musculus [4]): 25.6 mg/kg
36 | 47 | 294 | 53 | Fc1ccc(-c2ccc3nc(Cl)nc(N[C@@H]4C[C@H]5CC[C@@H]4C5)c3c2)cc1 | 
37 | 62 | 97 | 44 | Cc1nc(N[C@@H]2C[C@H]3CC[C@@H]2C3)c2cc(-c3cc(Cl)cc(Cl)c3)ccc2n1 | 
67 | 58 | 90 | 63 | FC(F)(F)c1cccc(-c2ccc3nc(Cl)nc(N[C@@H]4C[C@H]5CC[C@@H]4C5)c3c2)c1 | 
63 | 56 | 419 | 74 | Cc1nc(N[C@@H]2C[C@H]3CC[C@@H]2C3)c2cc(-c3ccc(Cl)c(Cl)c3)ccc2n1 | 
